Values quoted from earlier work, collected in patent publication US12201111B2, “Glyphosate formulations containing amidoalkylamine surfactants” (Monsanto Technology LLC, priority 2016, dated 2025).

Settings: glyphosate in its acid form; 25° C.

SMILES: O=C(O)CNCP(=O)(O)O [glyphosate, N-phosphonomethylglycine]
- solubility in water: 1.16 % by weight
